The test system of one series is Candida albicans M9001. Briefly: MIC (minimum growth inhibitory concentration) on test microorganisms. Type of series: cell-based. From the text: (§1) Minimum growth inhibitory concentrations (MIC) of a hydrochloride of substance SF 2698 on various test microorganisms are shown in Table 1 below.
The test system of series [1] is Candida glabrata IFO-0005. The series is described as above. Type of series: cell-based. To be noted: Nakaseomyces glabratus, IFO0005.
Excerpt: as §1

The test system of series [2] is Candida glabrata IFO-0622. Described as above. Type of series: cell-based. To be noted: Nakaseomyces glabratus, IFO0622.
Excerpt: as §1

The next series has as its system Candida utilis M9007. The series is described as above. To be noted: Williopsis jadinii. Type of series: cell-based.
Excerpt: as §1

Series [3] has as its system Cryptococcus neoformans M9010. The description is as above. Type of series: cell-based.
Excerpt: as §1

A further series concerns mice. As to the kind of experiment: toxicity by intravenous injection to mice. It is filed as in vivo. To be noted: dose of 100 mg/kg. From the text: Further, toxicity of a hydrochloride of substance SF2698 was examined by administering to mice the test compound by intravenous injection.
The next series in a line: Solubility. Type of series: physicochemical.
For another series, the system named is eumycetes. As to the kind of experiment: antimicrobial activity (Table 1, summary). It is filed as cell-based. To be noted: against certain kinds of eumycetes, from Table 1.
Excerpt: as §1

Structures can show the parent of a compound that is named as a salt.

The values below come from patent publication US5164507A, “Antibiotic pyridine compound” (Meiji Seika Kaisha Ltd., priority 1990, dated 1992).

With `N=C1C=CCC(C(=O)O)N1` (stereo not shown) [hydrochloride of substance SF 2698], the minimum inhibitory concentration (MIC) (as a rule, the smallest concentration in the dilution series that meets the test's criterion for growth inhibition) in the series with Candida albicans M9001 is more than 100 µg/mL; in series [1], 0.2 µg/mL; in series [2], 0.78 µg/mL; in the series on Candida utilis M9007, 12.5 µg/mL; in series [3] it was more than 100 µg/mL. For the same compound, the case of death result in the series on mice is “no case of death”. Further, the Solubility entry is “soluble” in the series “Solubility” (in methanol); “insoluble” in “Solubility” (in organic solvents, e.g., ethyl acetate); “soluble” in the series “Solubility” (in water). Further, the antimicrobial activity result in the series on eumycetes is “exhibits antimicrobial activity against certain kinds of eumycetes”.
